# Source: patent publication US20230372374A1, “VETERINARY PHARMACEUTICAL FORMULATIONS” (INCREVET, INC., priority 2022, published 2023)
# Key:
# [1] = Pharmacokinetics in cats after capsule dosing; assay type: in vivo, cat
# Procedure: Capsules were evaluated using cohorts of four laboratory cats that were administered test article at multiple dose levels. The test article was prepared in size 4 gelatin capsules and administered by mouth to animals that had been fasted 12 h. The capsules were loaded with 5% bexagliflozin (w/w) in microcrystalline cellulose for the 0.1, 0.3 and 1.0 mg kg^−1 dose levels, and with bexagliflozin alone for the 3.0 and 10.0 mg kg^−1 dose levels. The cats were provided with food ad libitum 2 hours after dosing.
# Blood samples were collected from the acral vein at the scheduled time points. Samples of 0.1 to 0.3 mL were drawn into 1.5 mL tubes containing dipotassium EDTA as an anticoagulant. The samples were immediately mixed by gently inverting the tube approximately 8 times. Immediately following mixing, the tubes were placed on crushed ice and kept chilled until centrifugation. Samples were centrifuged within 1 hour of collection. Following centrifugation, the tubes were returned to crushed ice and supernatants transferred into microcentrifuge tubes and frozen. The tubes were stored frozen in a −20° C. freezer at the testing facility prior to shipment for analysis. Plasma bexagliflozin concentration was measured by an LC-MS/MS method. Separations were performed using an Agilent 1200 equipped with a Thermo Betasil C18 50×2.1 mm, 5 μm packing column or a Phenomenex Gemini C18 50×4.5 mm, 5 μm packing column. Analyte detection was performed with an ABI 4000 or AB Sciex QTRAP 5500 mass spectrometer.
# The volume of distribution was relatively large, ranging from 5.5 to 11.9 L kg^−1, with no dose-dependent trend. […] The majority of the variation in half-life was attributable to variation in the volume of distribution, and the clearance was relatively constant at 1.46±0.24 L h^−1 kg^−1. The AUC0-24 was proportional to dose over the entire dosing range and a linear regression with a constrained intercept of 0 ng h mL^−1 at 0 mg kg^−1 gave a slope of 762 ng h mL^−1 per mg kg^−1 of dose (FIG. 2).
# [2] = test system: renal glucose reuptake; assay: Urinary glucose excretion in cats after capsule dosing; assay type: in vivo, cat
# Procedure: The pharmacodynamics of inhibitors of renal glucose reuptake can be easily monitored by measurement of urinary glucose excretion (UGE). The sodium-linked glucose transporters SGLT1 and SGLT2 are expressed in the second and first segments, respectively, (pars recta and pars convoluta) of the renal proximal tubule.
# As described above, 4 laboratory cats were administered bexagliflozin as either a blend with microcrystalline cellulose or as pure bexagliflozin, in each case in gelatin capsules. Bexagliflozin induced a significant glucosuria in healthy cats. At 3 mg kg^−1, total urinary glucose excreted over a period of 24 hours was 4.78 g (Table 14). […] Glucosuria following test article administration in the fasted state was higher than glucosuria following administration in the fed state (Table 14, bottom row).
# [3] = test system: renal glucose reuptake; assay: Urinary glucose excretion in cats after DEGEE/glycerol liquid formulations; assay type: in vivo, cat; conditions: daily oral DEGEE/glycerol liquid formulations F16D-V1 to F16D
# Procedure: The pharmacodynamics produced by liquid formulations of bexagliflozin were also evaluated. Cats were fed daily with Whiskas Cat Food in Can (Ocean Fish) and bexagliflozin was delivered orally daily with different formulations derived from F16D as shown in Table 15.
# Cats were dosed with F16D-V0 (0.1 mL kg^−1) for two days (vehicle control), and urine samples were collected on the second day for glucose excretion analysis. Similarly, cats were dosed daily with F16D-V1 (0.1 mL kg^−1) from Day 1 to Day 4 at 0.1 mg kg^−1 dose, and urine samples were collected from Day 2 to Day 4 for glucose excretion analysis; cats were dosed daily with F16D-V2 (0.1 mL kg^−1) from Day 5 to Day 8 at 0.3 mg kg^−1 dose, and urine samples were collected from Day 6 to Day 8 for glucose excretion analysis; cats were dosed daily with F16D-V3 (0.1 mL kg^−1) from Day 9 to Day 12 at 1 mg kg^−1 dose, and urine samples collected from Day 10 to Day 12 for glucose excretion analysis; and cats were dosed daily with F16D (0.1 mL kg^−1) from Day 13 to Day 16 at 3 mg kg^−1 dose, and urine samples were collected from Day 14 to Day 16 for glucose excretion analysis.
# Urine samples were analyzed using a HITACHI 7600-010 automatic biochemistry analyzer. Urine glucose and creatinine concentrations were measured. […]
# [4] = test system: renal glucose reuptake; assay: Urinary glucose excretion in cats after tablet dosing; assay type: in vivo, cat; conditions: healthy cats, tablets, corrected for assay
# Procedure: A dose range-finding study was conducted with tablets prepared using a polacrilex resin slurry process. For the evaluation of pharmacodynamics, animals were fed canned food, to promote a constant daily urine volume and proper collection of urine samples. Water was supplied ad libitum.
# All animals were administered test article at each dose level. The 2.5 mg dose was delivered as half of one 5 mg tablet cleaved with a pill cutter. The 5 mg dose was delivered as one 5 mg tablet per cat, the 10 mg dose was delivered as one 10 mg tablet per cat and the 30 mg dose was delivered as two 15 mg tablets per cat. For the pharmacokinetics study, test articles were dosed after the sampling of blood at pre-dose (0 h) time point. For the pharmacodynamics study, test articles were administered daily at 9:00-9:30 for four consecutive days and urine excreted by the animals for the last three days (after the dose and before next dose) was collected.
# Collections were performed for three days to diminish the consequences of day-to-day variation of urine excretion. […] For convenience in referring to dose levels, the nominal dosages are used in this report, but calculations of dose-response relationships in mg kg^−1 were based on the measured bexagliflozin content.
# The pharmacodynamics elicited by bexagliflozin delivered by tablets was also evaluated. […]
# [5] = Solubility of bexagliflozin in aqueous media; assay type: physicochemical; conditions: aqueous media at 37° C.
# [6] = humans; cited from earlier work
compound,measurement,setting,value
"OC[C@H]1O[C@@H](c2ccc(Cl)c(Cc3ccc(OCCOC4CC4)cc3)c2)[C@H](O)[C@@H](O)[C@@H]1O [Bexagliflozin, (2S,3R,4R,5S,6R)-2-(4-chloro-3-(4-(2-cyclopropoxyethoxy)benzyl)phenyl)-6-(hydroxymethyl)tetrahydro-2H-pyran-3,4,5-triol]",slope of AUC0-24 versus dose,"[1]; cats, capsules, linear regression with constrained intercept of 0",762 ng h mL^−1 per mg kg^−1
same,Tmax,"[1]; in vivo, po",0.6 to 1.2 h
same,clearance,"[1]; in vivo, po",24.3 ± 4 mL/min/kg
same,half-life,"[1]; in vivo, po",2.9 to 5.9 h
same,volume of distribution,"[1]; in vivo, po",5.5 to 11.9 L/kg
same,total urinary glucose excreted over a period of 24 hours,"[2]; cats, capsule, 3 mg kg^−1",4.78 g
same,ED50 of glucosuria,"[2]; healthy cats, capsules",0.56 mg/kg
same,half-maximal dose (ED50) for daily glucose excretion,[3],0.383 mg/kg/day
same,maximum daily glucose excretion (predicted),[3]; 0.1 to 3 mg kg^−1,7854 mg
same,ED50 for UGE,[4],0.505 mg/kg
same,solubility,[5],~500 µg/mL
same,hazard ratio for the reduction in major adverse cardiovascular events,[6],0.774
